The target in assay [1] is Tyrosine-protein kinase ABL1 (Homo sapiens, UniProt P00519). The following applies: at 10 µM.
In assay [2] the target is T1, Protein kinase C epsilon type (Homo sapiens) (UniProt Q02156).
T1 sequence (whole entry): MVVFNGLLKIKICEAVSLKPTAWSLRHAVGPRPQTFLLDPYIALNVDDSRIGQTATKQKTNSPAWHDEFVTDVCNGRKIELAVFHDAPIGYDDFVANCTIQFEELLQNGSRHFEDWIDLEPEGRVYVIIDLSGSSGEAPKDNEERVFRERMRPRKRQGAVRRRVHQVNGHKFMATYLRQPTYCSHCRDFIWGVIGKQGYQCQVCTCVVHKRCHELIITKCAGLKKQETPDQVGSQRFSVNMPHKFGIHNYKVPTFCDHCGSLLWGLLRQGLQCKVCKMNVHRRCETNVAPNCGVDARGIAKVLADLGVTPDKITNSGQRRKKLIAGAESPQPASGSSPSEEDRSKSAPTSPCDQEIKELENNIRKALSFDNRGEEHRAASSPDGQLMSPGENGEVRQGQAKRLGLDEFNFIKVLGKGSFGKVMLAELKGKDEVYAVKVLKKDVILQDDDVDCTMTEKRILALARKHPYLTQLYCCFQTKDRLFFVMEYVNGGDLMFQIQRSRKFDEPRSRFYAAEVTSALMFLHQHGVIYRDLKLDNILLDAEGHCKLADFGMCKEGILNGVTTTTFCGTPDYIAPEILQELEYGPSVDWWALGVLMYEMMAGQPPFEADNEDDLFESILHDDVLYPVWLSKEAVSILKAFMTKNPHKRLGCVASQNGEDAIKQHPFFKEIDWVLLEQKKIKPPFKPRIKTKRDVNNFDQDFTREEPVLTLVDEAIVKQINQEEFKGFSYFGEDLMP
Kind of assay: Selectivity interaction (KinomeScan (DiscoverX)) EUB0001079a PRKCE. The following applies: at 1 µM.

Assay [3] has as its target LIM domain kinase 1 (Homo sapiens) (UniProt P53667). The assay can be described thus: Selectivity interaction (KinomeScan (DiscoverX)) EUB0000092b LIMK1. To be noted: at 10 µM.
Assay [4] deals with T2, Serine/threonine-protein kinase Nek2 (Homo sapiens) (UniProt P51955).
T2 sequence (whole entry): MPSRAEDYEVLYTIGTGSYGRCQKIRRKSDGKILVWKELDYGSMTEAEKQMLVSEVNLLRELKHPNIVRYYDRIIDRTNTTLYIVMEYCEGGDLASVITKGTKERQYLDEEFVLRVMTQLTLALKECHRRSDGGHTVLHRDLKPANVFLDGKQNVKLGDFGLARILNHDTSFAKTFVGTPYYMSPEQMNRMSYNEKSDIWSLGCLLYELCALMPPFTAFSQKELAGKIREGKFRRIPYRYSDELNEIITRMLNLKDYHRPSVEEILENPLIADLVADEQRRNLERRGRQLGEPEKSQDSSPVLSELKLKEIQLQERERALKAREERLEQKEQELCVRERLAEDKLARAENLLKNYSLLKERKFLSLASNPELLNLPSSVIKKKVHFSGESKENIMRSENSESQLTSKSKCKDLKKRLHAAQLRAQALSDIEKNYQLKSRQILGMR
Kind of assay: Selectivity interaction (KinomeScan (DiscoverX)) EUB0001049a NEK2. To be noted: at 1 µM.

For assay [5], the target named is Bromodomain-containing protein 9 (Homo sapiens) (UniProt Q9H8M2). Kind of assay: Selectivity interaction (Bromodomain panel (DSF asssay)) EUB0000270b BRD9.
The target of assay [6] is Ribosomal protein S6 kinase beta-1 (Homo sapiens, UniProt P23443). The assay can be described thus: Selectivity interaction (ActivX KiNativ screen (kinase selectivity in THP-1 cell lysates)) EUB0000639a RPS6KB1. Type of assay: subcellular. To be noted: lysate, at 0.2 µM.
The target in assay [7] is T3, Bromodomain-containing protein 9 (Homo sapiens, UniProt Q9H8M2).
T3 sequence (Q9H8M2 whole entry): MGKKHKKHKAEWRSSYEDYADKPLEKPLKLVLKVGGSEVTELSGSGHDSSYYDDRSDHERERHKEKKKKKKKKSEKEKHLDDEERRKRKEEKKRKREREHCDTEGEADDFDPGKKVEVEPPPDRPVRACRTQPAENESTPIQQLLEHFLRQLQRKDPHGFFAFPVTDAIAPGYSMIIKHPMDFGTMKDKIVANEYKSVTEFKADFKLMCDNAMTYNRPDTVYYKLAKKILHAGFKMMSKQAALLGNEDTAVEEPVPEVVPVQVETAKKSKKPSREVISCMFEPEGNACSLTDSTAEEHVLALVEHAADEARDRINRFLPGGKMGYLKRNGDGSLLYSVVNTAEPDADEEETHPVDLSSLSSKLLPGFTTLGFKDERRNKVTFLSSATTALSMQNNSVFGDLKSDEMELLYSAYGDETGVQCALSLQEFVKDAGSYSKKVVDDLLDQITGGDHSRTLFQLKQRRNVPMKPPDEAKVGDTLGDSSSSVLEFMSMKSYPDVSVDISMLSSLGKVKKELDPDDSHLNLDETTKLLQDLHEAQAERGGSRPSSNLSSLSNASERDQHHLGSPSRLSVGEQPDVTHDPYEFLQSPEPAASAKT
Kind of assay: Selectivity interaction (ITC measurement) EUB0000233b BRD9. A general note: ITC needs no label: the signal is the heat of the interaction.

Assay [8] concerns the target Mitogen-activated protein kinase kinase kinase 21 (Homo sapiens) (UniProt Q5TCX8). The assay can be described thus: Selectivity interaction (Kinase panel (KiNativ target engagement assay in Jurkat cells)) EUB0001635a MAP3K21. The class given is cell-based. To be noted: Selectivity number of off-targets 0.0, Selectivity number of targets 233.0, Source Knowledge https://www.sciencedirect.com/science/article/pii/S2451945619300674?via%3Dihub, at 1 µM.

LIM domain kinase 1 (Homo sapiens), sequence (P53667 whole entry, looked up, the tested form may be a part): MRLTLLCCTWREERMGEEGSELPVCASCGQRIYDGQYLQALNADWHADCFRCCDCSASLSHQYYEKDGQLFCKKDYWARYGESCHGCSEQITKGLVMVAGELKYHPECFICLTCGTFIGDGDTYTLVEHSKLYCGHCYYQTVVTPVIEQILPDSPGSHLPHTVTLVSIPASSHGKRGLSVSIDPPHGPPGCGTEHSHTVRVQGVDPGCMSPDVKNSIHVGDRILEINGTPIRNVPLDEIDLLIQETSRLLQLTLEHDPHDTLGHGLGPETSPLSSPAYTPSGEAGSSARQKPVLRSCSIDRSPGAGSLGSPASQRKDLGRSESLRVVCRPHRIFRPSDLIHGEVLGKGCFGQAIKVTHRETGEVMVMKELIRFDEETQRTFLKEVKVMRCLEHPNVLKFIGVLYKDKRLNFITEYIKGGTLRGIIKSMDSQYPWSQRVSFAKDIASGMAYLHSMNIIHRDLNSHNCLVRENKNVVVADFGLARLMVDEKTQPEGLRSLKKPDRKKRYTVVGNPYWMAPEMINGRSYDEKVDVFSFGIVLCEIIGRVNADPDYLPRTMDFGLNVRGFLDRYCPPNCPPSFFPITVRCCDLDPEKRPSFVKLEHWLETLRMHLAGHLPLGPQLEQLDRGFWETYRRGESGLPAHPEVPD
Ribosomal protein S6 kinase beta-1, sequence (P23443 whole entry, looked up): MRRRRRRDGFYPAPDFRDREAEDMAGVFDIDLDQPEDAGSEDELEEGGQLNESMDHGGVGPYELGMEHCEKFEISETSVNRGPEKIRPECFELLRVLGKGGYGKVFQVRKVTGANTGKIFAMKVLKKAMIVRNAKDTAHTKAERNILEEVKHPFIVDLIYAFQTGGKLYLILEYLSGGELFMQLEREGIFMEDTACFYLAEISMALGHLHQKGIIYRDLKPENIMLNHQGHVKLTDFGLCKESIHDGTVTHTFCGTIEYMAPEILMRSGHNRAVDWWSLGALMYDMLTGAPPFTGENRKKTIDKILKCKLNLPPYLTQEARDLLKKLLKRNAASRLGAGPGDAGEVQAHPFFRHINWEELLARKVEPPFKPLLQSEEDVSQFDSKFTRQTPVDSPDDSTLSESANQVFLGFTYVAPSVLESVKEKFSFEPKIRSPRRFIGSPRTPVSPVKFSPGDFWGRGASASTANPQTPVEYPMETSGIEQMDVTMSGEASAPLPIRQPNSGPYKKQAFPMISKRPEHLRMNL
Tyrosine-protein kinase ABL1, sequence (P00519 whole entry): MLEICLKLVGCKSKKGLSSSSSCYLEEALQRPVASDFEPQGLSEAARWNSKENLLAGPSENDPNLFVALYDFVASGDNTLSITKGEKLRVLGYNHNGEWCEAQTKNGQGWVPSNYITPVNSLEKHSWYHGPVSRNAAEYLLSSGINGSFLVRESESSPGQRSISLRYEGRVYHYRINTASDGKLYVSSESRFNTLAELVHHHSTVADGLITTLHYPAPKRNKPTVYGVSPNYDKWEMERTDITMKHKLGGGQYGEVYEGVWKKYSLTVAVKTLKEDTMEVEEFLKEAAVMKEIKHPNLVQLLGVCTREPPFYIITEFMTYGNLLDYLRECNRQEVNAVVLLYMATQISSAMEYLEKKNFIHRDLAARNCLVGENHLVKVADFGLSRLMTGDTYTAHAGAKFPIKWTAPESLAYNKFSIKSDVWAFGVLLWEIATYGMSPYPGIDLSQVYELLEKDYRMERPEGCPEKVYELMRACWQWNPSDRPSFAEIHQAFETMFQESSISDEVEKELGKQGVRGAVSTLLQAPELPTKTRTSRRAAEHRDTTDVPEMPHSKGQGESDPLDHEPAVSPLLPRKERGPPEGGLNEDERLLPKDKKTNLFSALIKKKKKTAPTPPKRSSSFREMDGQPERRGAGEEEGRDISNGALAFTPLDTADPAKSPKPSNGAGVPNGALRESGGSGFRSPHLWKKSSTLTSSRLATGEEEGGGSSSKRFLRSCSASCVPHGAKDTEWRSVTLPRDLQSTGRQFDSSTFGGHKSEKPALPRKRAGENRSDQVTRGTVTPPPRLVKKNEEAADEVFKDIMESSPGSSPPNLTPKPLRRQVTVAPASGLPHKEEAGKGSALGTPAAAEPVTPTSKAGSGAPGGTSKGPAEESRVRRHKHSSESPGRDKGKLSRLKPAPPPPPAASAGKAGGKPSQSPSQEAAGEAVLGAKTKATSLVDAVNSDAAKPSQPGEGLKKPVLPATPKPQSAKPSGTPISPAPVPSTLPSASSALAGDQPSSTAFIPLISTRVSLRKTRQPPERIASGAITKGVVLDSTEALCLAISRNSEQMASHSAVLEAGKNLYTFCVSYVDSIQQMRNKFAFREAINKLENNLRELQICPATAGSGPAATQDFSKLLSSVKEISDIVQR
Mitogen-activated protein kinase kinase kinase 21 (Homo sapiens), sequence (Q5TCX8 whole entry): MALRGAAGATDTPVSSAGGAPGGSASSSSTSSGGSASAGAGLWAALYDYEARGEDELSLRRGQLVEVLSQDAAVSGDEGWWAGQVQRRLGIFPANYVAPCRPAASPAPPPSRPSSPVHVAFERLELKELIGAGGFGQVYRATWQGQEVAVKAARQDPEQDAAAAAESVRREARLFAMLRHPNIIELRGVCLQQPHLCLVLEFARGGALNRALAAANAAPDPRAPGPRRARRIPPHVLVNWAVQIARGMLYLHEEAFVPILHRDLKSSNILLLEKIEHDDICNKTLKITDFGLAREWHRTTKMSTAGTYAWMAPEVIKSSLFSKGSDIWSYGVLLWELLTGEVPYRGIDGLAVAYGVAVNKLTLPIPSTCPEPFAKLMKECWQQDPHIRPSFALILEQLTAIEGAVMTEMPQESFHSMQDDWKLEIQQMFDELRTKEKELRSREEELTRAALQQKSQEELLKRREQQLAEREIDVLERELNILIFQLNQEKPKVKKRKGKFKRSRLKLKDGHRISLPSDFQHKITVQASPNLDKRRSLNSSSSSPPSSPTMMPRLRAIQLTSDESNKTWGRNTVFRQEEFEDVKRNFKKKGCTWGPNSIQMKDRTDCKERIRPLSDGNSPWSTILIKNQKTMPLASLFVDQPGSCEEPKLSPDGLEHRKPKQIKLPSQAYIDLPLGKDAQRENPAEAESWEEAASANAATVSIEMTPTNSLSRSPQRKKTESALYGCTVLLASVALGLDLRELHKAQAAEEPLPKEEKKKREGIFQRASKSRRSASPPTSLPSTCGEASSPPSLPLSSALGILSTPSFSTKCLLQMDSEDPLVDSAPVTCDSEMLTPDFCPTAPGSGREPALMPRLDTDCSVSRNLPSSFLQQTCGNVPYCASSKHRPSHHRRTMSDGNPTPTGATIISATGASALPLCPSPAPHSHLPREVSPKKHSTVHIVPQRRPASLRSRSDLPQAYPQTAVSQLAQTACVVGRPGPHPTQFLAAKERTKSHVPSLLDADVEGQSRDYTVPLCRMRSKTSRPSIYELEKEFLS

Regarding `Cc1cc([C@@H](C)Nc2ccccc2C(=O)O)c2nc(N3CCOCC3)cc(=O)n2c1` [AZD-6482], the % of control in assay [1] was determined as 100%.
In turn, `Nc1cnc(N2CCc3cc(S(=O)(=O)Nc4c(F)cc(Cl)cc4F)cc(N4CCCC4=O)c32)nc1` [TP-020n] came in with a % of control in assay [2] of 100%.
Consider `CCC(=O)N1CCN(c2ccc(-n3c(=O)ccc4cnc5ccc(-c6cnc7ccccc7c6)cc5c43)cc2C(F)(F)F)CC1`, for which the % of control in assay [3] worked out at 15%.
Take `COc1cc(Nc2nc(C)cc(-c3cnn4nc(OC)ccc34)n2)cc(C(F)(F)F)c1`: the % of control in assay [4] is 98%.
Regarding `Cc1cc(CN)cc(C)c1-c1ncn(C)c1-c1cncn1C`, in assay [5], the dTM was -1.14 K.
Take `CC[C@@H]1[C@H](F)C(=O)N[C@@H]1COc1nccc2cc(C(N)=O)c(OC)cc12` [ZIMLOVISERTIB]: the % of inhibition in assay [6] is -6.2%.
In the case of `CN(C)CCCOc1ccc(-c2cc(NCCCn3cccn3)nc(S(C)(=O)=O)n2)cc1`, the dissociation constant Kd in assay [7] stood at 1100 nM.
As for `C=CC(=O)Nc1ccc(C(=O)Nc2[nH]nc3c2CN(C(=O)N[C@H](CN(C)C)c2ccccc2)C3(C)C)cc1`, in assay [8], the % of engagement was -4.1%.

For orientation: Kd means a measure of binding affinity in units of concentration. Read a high Kd as a looser complex.

Values taken from ChEMBL document CHEMBL5465560, “Selectivity Literature for EUbOPEN Chemogenomic Library” (2024).
